Experiments:
Epac1 = target: T1, Epac1 (Homo sapiens, UniProt O95398); assay: Epac activation assay, Epac1; format: biochemical; settings: Epac1; for Rel. kmax: maximal activity relative to cAMP
T1 construct: made in house
T1 sequence (O95398 150-881 isoform O95398-3): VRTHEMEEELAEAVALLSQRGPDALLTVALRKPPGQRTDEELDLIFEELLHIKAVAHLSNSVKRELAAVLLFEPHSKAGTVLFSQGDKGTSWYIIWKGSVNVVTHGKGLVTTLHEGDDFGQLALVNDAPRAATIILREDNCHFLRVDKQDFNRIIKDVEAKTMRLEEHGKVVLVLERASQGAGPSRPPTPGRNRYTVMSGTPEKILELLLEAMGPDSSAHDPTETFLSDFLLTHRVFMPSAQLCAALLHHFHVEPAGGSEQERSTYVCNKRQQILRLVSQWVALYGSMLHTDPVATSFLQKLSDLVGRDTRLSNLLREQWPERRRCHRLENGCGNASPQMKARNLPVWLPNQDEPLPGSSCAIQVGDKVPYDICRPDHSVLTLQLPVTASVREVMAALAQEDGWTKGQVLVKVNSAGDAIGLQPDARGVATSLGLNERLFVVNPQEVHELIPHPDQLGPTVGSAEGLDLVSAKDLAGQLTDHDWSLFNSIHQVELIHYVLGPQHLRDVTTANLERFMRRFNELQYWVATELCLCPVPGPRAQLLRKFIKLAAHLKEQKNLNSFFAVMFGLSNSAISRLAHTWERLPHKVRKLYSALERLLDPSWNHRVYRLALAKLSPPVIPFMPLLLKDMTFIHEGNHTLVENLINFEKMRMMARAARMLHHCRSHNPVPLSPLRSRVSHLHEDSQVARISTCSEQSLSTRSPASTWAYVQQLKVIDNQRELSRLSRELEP

Epac2^Δ280 = target: T2, Epac2^Δ280 (Mus musculus, UniProt Q9EQZ6); assay: Epac activation assay (Rap1B•mGDP fluorescence nucleotide exchange), Epac2^Δ280; format: biochemical; settings: Epac2^Δ280; for Rel. kmax: maximal activity relative to cAMP
T2 construct: made in house
T2 sequence (Q9EQZ6 281-993 isoform Q9EQZ6-3): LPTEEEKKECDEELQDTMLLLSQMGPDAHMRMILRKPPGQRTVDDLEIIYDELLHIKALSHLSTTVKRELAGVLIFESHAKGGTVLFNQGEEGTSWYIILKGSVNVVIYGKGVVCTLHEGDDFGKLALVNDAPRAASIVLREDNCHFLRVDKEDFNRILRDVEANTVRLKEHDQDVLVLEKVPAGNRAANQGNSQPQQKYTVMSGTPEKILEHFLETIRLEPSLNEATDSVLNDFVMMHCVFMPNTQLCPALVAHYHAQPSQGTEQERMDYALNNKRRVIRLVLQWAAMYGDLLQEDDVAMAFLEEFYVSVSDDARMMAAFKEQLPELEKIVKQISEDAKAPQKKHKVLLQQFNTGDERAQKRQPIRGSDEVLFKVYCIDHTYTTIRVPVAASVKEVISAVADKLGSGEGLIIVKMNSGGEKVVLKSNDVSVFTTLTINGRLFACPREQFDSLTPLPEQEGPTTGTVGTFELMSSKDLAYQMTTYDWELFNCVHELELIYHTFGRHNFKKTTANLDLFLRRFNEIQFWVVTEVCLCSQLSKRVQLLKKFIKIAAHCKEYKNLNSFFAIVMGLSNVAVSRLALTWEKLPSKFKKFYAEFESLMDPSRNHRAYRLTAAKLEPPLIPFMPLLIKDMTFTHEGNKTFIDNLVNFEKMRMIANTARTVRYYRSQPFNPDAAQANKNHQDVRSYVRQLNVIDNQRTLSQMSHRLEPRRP
Procedure: Murine Epac2 was used as all previous structural studies were performed with it.
The activity of Epac was determined by a fluorescence assay. […] The fluorescence intensity of Rap1B•mGDP is approximately twice that of free mGDP, and thus, nucleotide exchange can be observed as a decay in fluorescence upon the addition of excess unlabeled GDP.

Row | Compound | AC50 (Epac1) [µM] | Rel. kmax (Epac1) | AC50 (Epac2^Δ280) [µM] | Rel. kmax (Epac2^Δ280)
1 | Nc1ncnc2c1nc(O)n2[C@@H]1O[C@@H]2CO[P@](O)(=S)O[C@H]2[C@H]1O [S-130, Sp-8-OH-cAMPS] | 80 | 0.6 | 1.3 | 1.4
2 | Nc1ncnc2c1nc(NCc1ccccc1)n2[C@@H]1O[C@@H]2COP(=O)(O)O[C@H]2[C@H]1O [L-014, 8-BnA-cAMP] | 30 | 0.2 | 1.9 | 1.5
3 | CO[C@@H]1[C@@H]2OP(=O)(O)OC[C@H]2O[C@H]1n1c(Sc2ccc(O)cc2)nc2c(N)ncnc21 [D-008, 8-pOHPT-2′-O-Me-cAMP] | 1 | 3.1 | 1.5 | 2.2
4 | Nc1ncnc2c1ncn2[C@@H]1O[C@@H]2COP(=O)(O)O[C@H]2[C@H]1OCc1ccccc1 [Z-008, 2′-O-Bn-cAMP] | 75 | 1.5 | 35 | 0.4
5 | COc1ccc(Sc2nc3c(N)ncnc3n2[C@@H]2O[C@@H]3COP(=O)(O)OC3[C@@H]2OC)cc1 (stereo partly drawn) [D-009, 8-pMeOPT-2′-O-Me-cAMP] | 2.3 | 2.7 | 2.8 | 0.5
6 | Nc1ncnc2c1nc(SCc1ccccc1)n2[C@H]1C[C@@H]2O[P@@](O)(=S)OC[C@H]2O1 [S-221, Sp-8-BnT-2′-dcAMPS] | 280 | 0.06 | 10 | 1.5
7 | O[C@@H]1[C@@H]2OP(O)(=S)OC[C@H]2O[C@H]1n1cnc2cc(Cl)c(Cl)cc21 (stereo partly shown) [S-400, Sp-5,6-DCl-cBIMPS] | 14 | 1.0 | 0.9 | 0.8
8 | Nc1ncnc2c1ncn2[C@@H]1O[C@@H]2COP(=O)(O)O[C@H]2[C@H]1N [Z-003, 2′-NH2-cAMP] | 80 | 0.8 | 9 | 0.9
9 | Nc1ncnc2c1ncn2[C@@H]1O[C@@H]2COP(=O)(O)O[C@H]2[C@H]1F [Z-002, 2′-F-cAMP] | 1500 |  | 25 | 1.0
10 | Nc1ncnc2c1nc(SCc1ccccc1Cl)n2[C@@H]1O[C@@H]2CO[P@](O)(=S)O[C@H]2[C@H]1O [S-270, Sp-8-oCBnT-cAMPS] | 16 | 0.2 | 0.27 | 3.1
11 | Nc1ncnc2c1nc([Se]Cc1ccccc1)n2[C@@H]1O[C@@H]2COP(=O)(O)O[C@H]2[C@H]1OCc1ccccc1 [D-012, 8-BnSe-2′-O-Bn-cAMP] | 38 | 0.9 | 4.6 | 1.0
12 | CNc1nc2c(N)ncnc2n1[C@@H]1O[C@@H]2COP(=O)(O)O[C@H]2[C@H]1Cl [D-001, 8-MeA-2′-Cl-cAMP] | 330 | ~0.6? | 45 | 2.2
13 | CO[C@H]1C2OP(=O)(O)OC[C@H]2O[C@H]1n1c(Br)nc2c(N)ncnc21 (stereo partly drawn) [D-005, 8-Br-2′-O-Me-cAMP] | 35 | 0.9 | 8 | 1.6
14 | Nc1ncnc2c1nc(NC1CCCCC1)n2[C@@H]1O[C@@H]2COP(=O)(O)O[C@H]2[C@H]1O [L-013, 8-cHA-cAMP] | 50 | 0.3 | 4.7 | 0.3
15 | Nc1ncnc2c1nc(SCCc1ccccc1)n2[C@@H]1O[C@@H]2CO[P@](O)(=S)O[C@H]2[C@H]1O [S-190, Sp-8-PheET-cAMPS] | 6 | 0.2 | 0.14 | 0.4
16 | Nc1ncnc2c1nc(Br)n2[C@@H]1O[C@@H]2COP(=O)(O)O[C@H]2[C@H]1Cl [D-003, 8-Br-2′-Cl-cAMP] | 260 | ~0.5? | 11 | 0.9

Row | Compound | AC50 (Epac1) [µM] | Rel. kmax (Epac1) | AC50 (Epac2^Δ280) [µM] | Rel. kmax (Epac2^Δ280)
17 | Nc1ncnc2c1nc(Br)n2[C@@H]1O[C@@H]2COP(=O)(O)O[C@H]2[C@H]1F [D-004, 8-Br-2′-F-cAMP] | 100 | 0.4 | 14 | 1.5
18 | CNc1nc2c(N)ncnc2n1[C@@H]1O[C@@H]2CO[P@](O)(=S)O[C@H]2[C@H]1Cl [S-033, Sp-8-MeA-2′-Cl-cAMPS] | 120 | 0.1 | 14 | 0.7
19 | CNc1nc2c(N)ncnc2n1[C@H]1C[C@@H]2O[P@@](O)(=S)OC[C@H]2O1 [S-031, Sp-8-MeA-2′-dcAMPS] | 320 | 0.1 | 40 | 1.7
20 | Nc1ncnc2c1nc(NCCCCO)n2[C@@H]1O[C@@H]2COP(=O)(O)O[C@H]2[C@H]1O [L-008, 8-OHBuA-cAMP] |  |  | 2.6 | 1.6
21 | Nc1ncnc2c1nc(Sc1ccc(Cl)cc1)n2[C@@H]1O[C@@H]2COP([O-])(=S)O[C@H]2[C@H]1O.[Na+] (stereo partly shown) [S-210, Sp-8-pCPT-cAMPS] | 2.2 | 0.5 | 0.13 | 0.7
22 | 8-PIA-cAMP [L-019] |  |  | 19 | 3.8
23 | Nc1ncnc2c1nc(N1CCOCC1)n2[C@@H]1O[C@@H]2COP(=O)(O)O[C@H]2[C@H]1O [L-020, 8-Morph-cAMP] |  |  | 18 | 3.8
24 | CO[C@H]1C2OP(O)(=S)OC[C@H]2O[C@H]1n1c(Sc2ccc(Cl)cc2)nc2c(N)ncnc21 (stereo partly shown) [S-211, Sp-8-pCPT-2′-O-Me-cAMPS] | 7.3 | 1.9 | 1.4 | 0.4
25 | Nc1ncnc2c1nc(SCc1cccc(C(F)(F)F)c1)n2[C@@H]1O[C@@H]2CO[P@](O)(=S)O[C@H]2[C@H]1O [S-300, Sp-8-mTFMeBnT-cAMPS] |  |  | 0.14 | 5.0
26 | CSc1nc2c(N)ncnc2n1[C@@H]1O[C@@H]2CO[P@](O)(=S)O[C@H]2[C@H]1F [S-170, Sp-8-MeT-2′-F-cAMPS] |  |  | 6.9 | 2.8
27 | Nc1ncnc2c1nc(OCc1ccccc1)n2[C@@H]1O[C@@H]2CO[P@](O)(=S)O[C@H]2[C@H]1O [S-150, Sp-8-BnO-cAMPS] |  |  | 1.3 | 4.8
28 | Nc1ncnc2c1nc(Br)n2[C@@H]1O[C@@H]2CO[P@](O)(=S)O[C@H]2[C@H]1Cl [S-013, Sp-8-Br-2′-Cl-cAMPS] | 110 | 0.1 | 8 | 0.5
29 | Nc1ncnc2c1nc(Cl)n2[C@@H]1O[C@@H]2CO[P@](O)(=S)O[C@H]2[C@H]1Cl [S-021] |  |  | 12 | 0.5
30 | COc1nc2c(N)ncnc2n1[C@@H]1O[C@@H]2CO[P@](O)(=S)O[C@H]2[C@H]1O [S-140, Sp-8-MeO-cAMPS] |  |  | 0.7 | 7.3
31 | Nc1ncnc2c1nc(Br)n2[C@@H]1O[C@@H]2CO[P@](O)(=S)O[C@H]2[C@H]1F [S-012, Sp-8-Br-2′-F-cAMPS] | 75 | 0.08 | 9.8 | 1.2
32 | CCCCCCNc1nc2c(N)ncnc2n1[C@@H]1O[C@@H]2COP(=O)(O)OC2[C@@H]1O (stereo partly drawn) [L-009, 8-HA-cAMP] |  |  | 2.5 | 2.0
